Source: patent US6376518B1, “Acyl derivatives of 4-demethylpenclomedine, use thereof and preparation thereof” (Southern Research Institute, priority 1999, dated 2002)
Read-outs that look alike come from different tables or passages of the source.

Assays:
[1] = test system: human MX-1 mammary tumor; assay: In vivo antitumor activity vs i.c.-implanted human MX-1 mammary tumor xenograft in athymic mice; conditions: ic MX-1; optimal doses (LD10 or less), schedule QD1-5, administered LP.
[2] = test system: P388/CPA leukemia; assay: Antitumor activity against IP-implanted P388/CPA leukemia in mice; type: in vivo, murine; conditions: P388/CPA, Q1D × 5 (1)
[3] = test system: P388/0 leukemia; conditions: P388/0, Q1D × 5 (1); for MEDIAN DAY OF DEATH: dying mice only
[4] = test system: P388/L-PAM leukemia; conditions: for 50-DAY SURV/TOTAL / % ILS / APPROX. NET LOG10 CHANGE IN TUMOR BURDEN AT END OF Rx / MEDIAN DAY OF DEATH: P388/L-PAM, Q1D × 5 (1); for MEDIAN DAY OF DEATH: dying mice only
[5] = test system: patients; conditions: patients with advanced solid tumors; one hour infusion for 5 consecutive days; cited from earlier work
[6] = tumor-bearing rats, 14C-penclomedine; cited from earlier work
[7] = test system: P388/BCNU leukemia; assay: Antitumor activity against IP-implanted P388/BCNU leukemia in mice; conditions: P388/BCNU, Q1D × 5 (1); for MEDIAN DAY OF DEATH: dying mice only

COc1nc(C(Cl)(Cl)Cl)c(Cl)c(OC)c1Cl [PEN, 3,5-dichloro-2,4-dimethoxy-6-(trichloromethyl)pyridine]
Median % ILS (based on dying mice only) [1]: 88% | Survivors [1]: 0/5 | 50-DAY SURV/TOTAL ([2]; IP 60.0 mg/kg/dose): 0/6 | % ILS ([2]; IP 60.0 mg/kg/dose): −5% | APPROX. NET LOG10 CHANGE IN TUMOR BURDEN AT END OF Rx ([2]; IP 60.0 mg/kg/dose): +1.7 | 50-DAY SURV/TOTAL ([2]; IP 90.0 mg/kg/dose): 0/6 | % ILS ([2]; IP 90.0 mg/kg/dose): −5% | APPROX. NET LOG10 CHANGE IN TUMOR BURDEN AT END OF Rx ([2]; IP 90.0 mg/kg/dose): +1.7 | 50-DAY SURV/TOTAL ([2]; IP 135.0 mg/kg/dose): 0/6 | % ILS ([2]; IP 135.0 mg/kg/dose): −5% | APPROX. NET LOG10 CHANGE IN TUMOR BURDEN AT END OF Rx ([2]; IP 135.0 mg/kg/dose): +1.7 | 50-DAY SURV/TOTAL ([3]; IP 60.0 mg/kg/dose): 0/6 | % ILS ([3]; IP 60.0 mg/kg/dose): +31% | APPROX. NET LOG10 CHANGE IN TUMOR BURDEN AT END OF Rx ([3]; IP 60.0 mg/kg/dose): +0.4 | 50-DAY SURV/TOTAL ([3]; IP 90.0 mg/kg/dose): 0/6 | % ILS ([3]; IP 90.0 mg/kg/dose): +45% | APPROX. NET LOG10 CHANGE IN TUMOR BURDEN AT END OF Rx ([3]; IP 90.0 mg/kg/dose): −0.8 | MEDIAN DAY OF DEATH ([3]; IP 90.0 mg/kg/dose): 18.0 | 50-DAY SURV/TOTAL ([3]; IP 135.0 mg/kg/dose): 0/6 | % ILS ([3]; IP 135.0 mg/kg/dose): +90% | APPROX. NET LOG10 CHANGE IN TUMOR BURDEN AT END OF Rx ([3]; IP 135.0 mg/kg/dose): −4.8 | MEDIAN DAY OF DEATH ([3]; IP 135.0 mg/kg/dose): 21.0 | 50-DAY SURV/TOTAL ([4]; IP 60.0 mg/kg/dose): 0/6 | % ILS ([4]; IP 60.0 mg/kg/dose): 0% | APPROX. NET LOG10 CHANGE IN TUMOR BURDEN AT END OF Rx ([4]; IP 60.0 mg/kg/dose): +1.4 | MEDIAN DAY OF DEATH ([4]; IP 60.0 mg/kg/dose): 14.0 | 50-DAY SURV/TOTAL ([4]; IP 90.0 mg/kg/dose): 0/6 | % ILS ([4]; IP 90.0 mg/kg/dose): −8% | APPROX. NET LOG10 CHANGE IN TUMOR BURDEN AT END OF Rx ([4]; IP 90.0 mg/kg/dose): +1.6 | MEDIAN DAY OF DEATH ([4]; IP 90.0 mg/kg/dose): 13.0 | 50-DAY SURV/TOTAL ([4]; IP 135.0 mg/kg/dose): 0/6 | % ILS ([4]; IP 135.0 mg/kg/dose): −8% | APPROX. NET LOG10 CHANGE IN TUMOR BURDEN AT END OF Rx ([4]; IP 135.0 mg/kg/dose): +1.6 | MEDIAN DAY OF DEATH ([4]; IP 135.0 mg/kg/dose): 13.0 | activity in the P388/L-PAM tumor model (in words) ([4]; mouse, in vivo): none of the three showed significant activity | neurotoxicity (dysmetria, ataxia, vertigo) [5]: principal dose limiting toxicity | predominant radioactive species in the brain [6]: predominant radioactive species in the brain was penclomedine | 50-DAY SURV/TOTAL ([7]; IP 60.0 mg/kg/dose): 0/6 | % ILS ([7]; IP 60.0 mg/kg/dose): −6% | APPROX. NET LOG10 CHANGE IN TUMOR BURDEN AT END OF Rx ([7]; IP 60.0 mg/kg/dose): +1.8 | MEDIAN DAY OF DEATH ([7]; IP 60.0 mg/kg/dose): 8.5 | 50-DAY SURV/TOTAL ([7]; IP 90.0 mg/kg/dose): 0/6 | % ILS ([7]; IP 90.0 mg/kg/dose): 0% | APPROX. NET LOG10 CHANGE IN TUMOR BURDEN AT END OF Rx ([7]; IP 90.0 mg/kg/dose): +1.7 | MEDIAN DAY OF DEATH ([7]; IP 90.0 mg/kg/dose): 9.0 | 50-DAY SURV/TOTAL ([7]; IP 135.0 mg/kg/dose): 0/6 | % ILS ([7]; IP 135.0 mg/kg/dose): +27% | APPROX. NET LOG10 CHANGE IN TUMOR BURDEN AT END OF Rx ([7]; IP 135.0 mg/kg/dose): +1.2
